We go through one molecule from patent US10501437B2 (Bayer Pharma Aktiengesellschaft, priority 2016, dated 2019).

This data set in a line: Storage stability and micronization of crystalline material from the cubic dosing curve crystallization. As to conditions: crystalline material obtained from ethanol/water by cubic dosing curve crystallization. It counts as physicochemical.

On to `CC(C)(O)CCn1cc2cc(NC(=O)c3cccc(C(F)(F)F)n3)c(C(C)(C)O)cc2n1` [compound (I), N-[2-(3-Hydroxy-3-methylbutyl)-6-(2-hydroxypropan-2-yl)-2H-indazol-5-yl]-6-(trifluoromethyl)pyridine-2-carboxamide], for which the stability during storage result is reported as “good stability”.
